The numbers were not newly measured in patent US20210251923A1, “METHODS FOR IMPROVING NEUROLOGICAL DISEASES AND DISORDERS” (CuraSen Therapeutics, Inc., priority 2018, published 2021), which cites them from elsewhere.

The subject of this series is Ts65Dn mice. To be noted: increasing brain NE levels.

For `N[C@H](C(=O)O)[C@H](O)c1ccc(O)c(O)c1` [L-DOPS, L-threo-3,4-dihydroxyphenylserine], the contextual learning entry is given as “restored contextual learning”.
